Experimental data reported in patent US10441537B2, “Unit doses, aerosols, kits, and methods for treating heart conditions by pulmonary administration” (InCarda Therapeutics, Inc., priority 2017, dated 2019).
Structures can show the parent of a compound that is named as a salt.

What was measured:
[1] = system: induced supraventricular tachycardia; assay: Supraventricular tachycardia (SVT) model in anesthetized dogs, IT vs IV; format: in vivo; conditions: for cardiovascular effect when given by intratracheal instillation (summary): dog, in vivo
Method: Supraventricular Tachycardia Model:
Anesthesia/Surgical Preparation:
A venous catheter was placed in a peripheral vessel (i.e., cephalic) for administration of anesthetic(s). For anesthesia induction, all animals were given a combination of diazepam (˜0.5 mg/kg) and ketamine (˜10 mg/kg) intravenously through this venous catheter. Anesthesia was sustained until completion of the study with an intravenous infusion of pentobarbital (5-15 mg/kg/hr). Following induction, animals were endotracheally intubated and mechanically ventilated (˜12 breaths/min with a tidal volume of 200-300 mL).
Subsequently, a cut-down on a jugular vein permitted the introduction of a pacing lead into the right atrium. Similarly, for arterial pressure monitoring, a solid-state micromanometer catheter (Millar Instruments) was advanced into the aortic root via a cut-down over an artery (e.g., femoral, carotid). Transthoracic electrodes forming ECG lead II was placed. For vehicle/test article delivery, a 4F catheter was introduced through the trachea and wedged into a small airway, and a venous catheter was placed in a peripheral vessel (i.e., cephalic).
Following instrumentation/hemodynamic stabilization (for at least 15 minutes), right atrial pacing (5-10 V, 40 Hz, 2 ms pulses) was established in order to induce supraventricular tachycardia (SVT); pacing and SVT was sustained throughout the duration of the experiments. Approximately 5 minutes after onset of SVT and while monitoring ECG/arterial pressure continuously, the animals were administered three escalating doses (one at a time) of a test article; each dose was delivered as a bolus (˜3 mL) directly into a small airway through the intratracheal catheter (IT). Following dosing, the heart-rate (HR) and arterial pressure response were monitored for 15 minutes.
Subsequently (once the response to three IT doses had been recorded), hemodynamic recovery was allowed for approximately 30 minutes, and the electrocardiographic/hemodynamic response to the highest test-article dose was re-evaluated; however, for comparison purposes, this dose was delivered intravenously (IV).
Overall, two groups/test-articles were studied, and up to two animals were assigned to each group (n=2/group): one group received esmolol HCL (0.5-1.0 mg/kg, ESM), while the other received adenosine (0.25-1.0 mg/kg, ADN); only one test article was administered to per animal.

[2] = system: induced atrial fibrillation; assay: Induced atrial fibrillation model in anesthetized dogs, intratracheal (IT) administration; format: in vivo; conditions: for conversion of induced atrial fibrillation to normal sinus rhythm: pulmonary dose 0.25 mg/kg body weight (FIG. 13), hydrochloride
Method: Atrial Fibrillation Model: Anesthesia/Surgical Preparation: A venous catheter was placed in a peripheral vessel (i.e., cephalic) for administration of anesthetic. […] Following induction, animals were endotracheally intubated and mechanically ventilated (˜12 breaths/minute with a tidal volume of 200-300 mL). Subsequently, a cut-down on a jugular vein permitted introduction of a pacing lead into the right atrium. Transthoracic electrodes forming ECG lead II were placed. For test/vehicle article delivery, a 4F catheter was introduced through the trachea and wedged into a small airway, and a venous catheter was placed in a peripheral vessel (i.e., cephalic). […] Approximately 5 min after administration of this parasympathomimetic was started; the following experiments were performed: […] Observations were made for up to 10 minutes. […] Vehicle was only water.

Nc1ncnc2c1ncn2[C@@H]1O[C@H](CO)[C@@H](O)[C@H]1O [adenosine]
cardiovascular effect when given by intratracheal instillation (summary) [1]: a clear response was not observed | effect on the heart ([1]; via the lung): did not have any effect on the heart

COC(=O)CCc1ccc(OCC(O)CNC(C)C)cc1 (stereo not shown) [esmolol, esmolol HCl]
period of AV block ([1]; 0.5 mg/kg via the lung (FIG. 17, 18)): AV block induced | period of AV block ([1]; 0.75 mg/kg via the lung (FIG. 20)): AV block induced | cardiovascular effect when given by intratracheal instillation (summary) [1]: probable effect | AV block ([1]; elevating IT doses): 2nd degree AV block at lower doses | PR intervals in the ECG traces ([1]; elevating IT doses): prolonging the PR intervals | electrophysiological effects ([1]; higher dose 1.0 mg/kg): did not produce the same electrophysiological effects

CN(CCOc1ccc(NS(C)(=O)=O)cc1)CCc1ccc(NS(C)(=O)=O)cc1 [dofetilide]
effect on ventricular rate ([2]; IT bolus): marginally slowed the ventricular rate | cardiovascular effect when given by intratracheal instillation (summary) ([2]; dog, in vivo): probable effect | heart rate ([2]; escalating pulmonary doses of 10-40 mcg/kg body weight): minor reduction in heart rate

COc1ccc([C@@H]2Sc3ccccc3N(CCN(C)C)C(=O)[C@@H]2OC(C)=O)cc1 [diltiazem, diltiazem hydrochloride]
pulmonary vs IV route ([1]; 0.25 mg/kg): comparable in all aspects | PR interval ([1]; IV or pulmonary route): prolonged the PR interval | pH of solution in water (3.5 mg/mL): 6.7 | appearance of solution (distilled water, diltiazem hydrochloride 50 mg/ml, flecainide acetate 30 mg/ml): clear with no visible particulate matter | conversion of Atrial Fibrillation to normal sinus rhythm ([2]; IT bolus): rapidly converted the Atrial Fibrillation to normal sinus rhythm | cardiovascular effect when given by intratracheal instillation (summary) ([2]; dog, in vivo): clear cardiovascular effect | mean arterial blood pressure (MAP) ([2]; dog, in vivo, 0.25 mg/kg): notable drop in mean arterial blood pressure | PQ interval ([2]; pulmonary dose 0.25 mg/kg): prolonged the PQ interval | heart rate ([2]; pulmonary dose 0.25 mg/kg): slowed down but marginally | conversion of induced atrial fibrillation to normal sinus rhythm ([2]; 0.25 mg/kg): converted the induced atrial fibrillation to normal sinus rhythm | conversion of induced atrial fibrillation to normal sinus rhythm ([2]; listed as diltiazem HCl, 0.25 mg/kg): Afib converting after administration
